According to ChEMBL document CHEMBL6074674, “Development of Novel Silicon-Based Hydrophobic Tags (SiHyT) for Targeted Proteins Degradation” (J Med Chem, 2024):
Calls of active or inactive are those of the source. The calls are words filed in the database; no cut-off is given here.

How the values were obtained:
HCC827 [1] = test: Antiproliferative activity against human HCC827 cells assessed as decrease in cell survival measured after 72 hrs by CCK-8 assay; format: functional, cell-based; conditions: HCC827, 72 h
[2] = tested on: E3 ubiquitin-protein ligase RNF149/Epidermal growth factor receptor (Homo sapiens), P00533+Q8NC42 [UNDEFINED MUTATION]; test: SiHyT-mediated degrader activity at RNF149/EGFR mutant in human HCC827 cels assessed as induction of EGFR degradation at 0.1 uM cells incubated in serum-free media for 8 hrs followed by incubation with compound for 24 hrs by western blot analysis; format: cell-based
[3] = tested on: E3 ubiquitin-protein ligase RNF149/Epidermal growth factor receptor (Homo sapiens), P00533+Q8NC42 [UNDEFINED MUTATION]; test: SiHyT-mediated degrader activity at RNF149/EGFR mutant in human HCC827 cells assessed as induction of EGFR degradation at 1 uM cells incubated in serum-free media for 8 hrs followed by incubation with compound for 24 hrs by western blot analysis; format: cell-based
PC-9 [4] = test: Antiproliferative activity against human PC-9 cells assessed as decrease in cell survival measured after 72 hrs by CCK-8 assay; format: functional, cell-based; conditions: PC-9, 72 h
PC-9 [5] = test: Induction of cell cycle arrest in human PC-9 cells assessed as increase in cell accumulation at G1 phase at 0.01 to 0.1 uM incubated for 24 hrs by propidium iodide staining based flow cytometry; format: functional; conditions: dose 0.01-0.1 µM
HCC827 [6] = test: Induction of cell cycle arrest in human HCC827 cells assessed as increase in cell accumulation at G1 phase at 0.01 to 0.1 uM incubated for 24 hrs by propidium iodide staining based flow cytometry; format: functional; conditions: dose 0.01-0.1 µM
[7] = Half life of the compound in mouse liver microsomes at 1 uM in presence of NADPH by LC-MS/MS analysis; format: ADME, Microsome
[8] = Intrinsic clearance of the compound in mouse liver microsomes at 1 uM in presence of NADPH by LC-MS/MS analysis; format: ADME, Microsome; conditions: read-out: CLH
[9] = Half life of the compound in human liver microsomes at 1 uM in presence of NADPH by LC-MS/MS analysis; format: ADME, Microsome
[10] = Intrinsic clearance of the compound in human liver microsomes at 1 uM in presence of NADPH by LC-MS/MS analysis; format: ADME, Microsome; conditions: read-out: CLH
[11] = (§1) SiHyT-mediated degrader activity at RNF149/BTK in human MOLM-13 cells assessed as induction of BTK degradation incubated for 24 hrs by western blot analysis; format: cell-based; conditions: MOLM-13, 24 h
MOLM-13 [12] = test: as §1; format: cell-based
MOLM-13 [13] = test: SiHyT-mediated degrader activity at RNF149/BTK in human MOLM-13 cells assessed as induction of BTK degradation at 2.5 uM incubated for 3 to 24 hrs by western blot analysis; format: cell-based; conditions: time 3-24 hrs
MOLM-13 [14] = test: SiHyT-mediated degrader activity at RNF149/BTK in human MOLM-13 cells assessed as induction of BTK degradation at 2.5 uM pretreated with proteasome inhibitor, MG-132 for 4 hrs followed by incubation with compound for 24 hrs by western blot analysis; format: cell-based
MOLM-13 [15] = test: SiHyT-mediated degrader activity at RNF149/BTK in human MOLM-13 cells assessed as induction of BTK degradation at 2.5 uM pretreated with E1 ligase inhibitor, PYR-41 for 4 hrs followed by incubation with compound for 24 hrs by western blot analysis; format: cell-based
MOLM-13 [16] = test: SiHyT-mediated degrader activity at RNF149/BTK in human MOLM-13 cells assessed as reduction in half life of BTK at 2.5 uM incubated for 6 to 24 hrs in presence of protein synthesis inhibitor, CHX by western blot analysis; format: cell-based; conditions: time 6-24 hrs
MOLM-13 [17] = test: SiHyT-mediated degrader activity at RNF149/BTK in human MOLM-13 cells assessed as increase in BTK ubiquitination pretreated with MG132 followed by incubation with compound for 9 hrs by immunoprecipitation based western blot analysis; format: cell-based
MOLM-13 [18] = test: SiHyT-mediated degrader activity at RNF149/BTK in human MOLM-13 cells assessed as increase in BTK degradation by measuring decrease in BTK expression incubated for 12 hrs by proteomics analysis; format: cell-based
[19] = (§2) SiHyT-mediated degrader activity at RNF149/PDL1 in human Kasumi 1 cells assessed as induction of PDL1 degradation incubated for 24 hrs by western blot analysis; format: cell-based; conditions: Kasumi 1, 24 h
Kasumi 1 [20] = test: as §2; format: cell-based
Kasumi 1 [21] = test: SiHyT-mediated degrader activity at RNF149/PDL1 in human Kasumi 1 cells assessed as induction of PDL1 degradation at 1 uM incubated for 3 to 24 hrs by western blot analysis; format: cell-based; conditions: time 3-24 hrs
Kasumi 1 [22] = test: SiHyT-mediated degrader activity at RNF149/PDL1 in human Kasumi 1 cells assessed as induction of PDL1 degradation at 1 uM pretreated with proteasome inhibitor, MG-132 for 4 hrs followed by incubation with compound for 24 hrs by western blot analysis; format: cell-based
Kasumi 1 [23] = test: SiHyT-mediated degrader activity at RNF149/PDL1 in human Kasumi 1 cells assessed as induction of PDL1 degradation at 1 uM pretreated with E1 ligase inhibitor, PYR-41 for 4 hrs followed by incubation with compound for 24 hrs by western blot analysis; format: cell-based
Kasumi 1 [24] = test: SiHyT-mediated degrader activity at RNF149/PDL1 in human Kasumi 1 cells assessed as reduction in half life of PDL1 at 1 uM incubated for 6 to 24 hrs in presence of protein synthesis inhibitor, CHX by western blot analysis; format: cell-based; conditions: time 6-24 hrs
Kasumi 1 [25] = test: SiHyT-mediated degrader activity at RNF149/PDL1 in human Kasumi 1 cells assessed as increase in PDL1 ubiquitination pretreated with MG132 followed by incubation with compound for 9 hrs by immunoprecipitation based western blot analysis; format: cell-based
Kasumi 1 [26] = test: SiHyT-mediated degrader activity at RNF149/PDL1 in human Kasumi 1 cells assessed as increase in PDL1 degradation by measuring decrease in PDL1 expression incubated for 12 hrs by proteomics analysis; format: cell-based

E3 ubiquitin-protein ligase RNF149/Epidermal growth factor receptor (Homo sapiens), P00533+Q8NC42 [UNDEFINED MUTATION], sequence (P00533 whole entry, looked up, stated change not applied): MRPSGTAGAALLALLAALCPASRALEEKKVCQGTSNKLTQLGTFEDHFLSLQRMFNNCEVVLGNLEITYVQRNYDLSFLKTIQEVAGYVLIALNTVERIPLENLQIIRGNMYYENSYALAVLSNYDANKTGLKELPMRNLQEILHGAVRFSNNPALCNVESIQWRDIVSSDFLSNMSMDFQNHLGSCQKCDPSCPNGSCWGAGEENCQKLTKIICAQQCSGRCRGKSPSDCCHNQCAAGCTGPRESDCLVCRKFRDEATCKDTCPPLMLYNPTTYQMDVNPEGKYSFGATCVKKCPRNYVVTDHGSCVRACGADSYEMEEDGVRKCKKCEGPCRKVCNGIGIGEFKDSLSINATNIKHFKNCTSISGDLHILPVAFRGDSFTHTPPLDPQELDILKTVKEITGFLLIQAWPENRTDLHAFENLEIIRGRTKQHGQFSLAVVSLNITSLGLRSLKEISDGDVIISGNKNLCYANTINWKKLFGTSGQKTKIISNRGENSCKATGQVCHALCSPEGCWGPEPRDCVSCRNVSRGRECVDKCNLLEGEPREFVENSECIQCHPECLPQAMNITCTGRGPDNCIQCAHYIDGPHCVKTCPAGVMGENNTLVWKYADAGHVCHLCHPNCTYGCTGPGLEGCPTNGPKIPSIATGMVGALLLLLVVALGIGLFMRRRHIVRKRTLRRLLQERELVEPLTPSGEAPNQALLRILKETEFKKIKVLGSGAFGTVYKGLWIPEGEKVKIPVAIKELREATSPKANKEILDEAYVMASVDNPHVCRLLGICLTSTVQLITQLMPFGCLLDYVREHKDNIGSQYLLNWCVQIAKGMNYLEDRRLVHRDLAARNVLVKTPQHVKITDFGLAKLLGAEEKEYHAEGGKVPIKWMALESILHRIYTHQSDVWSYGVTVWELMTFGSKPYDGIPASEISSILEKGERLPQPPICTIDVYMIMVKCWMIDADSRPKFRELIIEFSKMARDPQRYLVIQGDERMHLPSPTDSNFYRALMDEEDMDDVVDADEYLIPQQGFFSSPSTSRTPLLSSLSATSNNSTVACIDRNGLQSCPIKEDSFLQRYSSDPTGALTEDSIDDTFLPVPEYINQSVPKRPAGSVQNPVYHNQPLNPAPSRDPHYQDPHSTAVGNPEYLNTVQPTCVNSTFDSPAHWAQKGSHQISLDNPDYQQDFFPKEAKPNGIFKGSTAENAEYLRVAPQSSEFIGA
E3 ubiquitin-protein ligase RNF149/Epidermal growth factor receptor (Homo sapiens), P00533+Q8NC42 [UNDEFINED MUTATION], sequence (Q8NC42 whole entry, looked up, stated change not applied): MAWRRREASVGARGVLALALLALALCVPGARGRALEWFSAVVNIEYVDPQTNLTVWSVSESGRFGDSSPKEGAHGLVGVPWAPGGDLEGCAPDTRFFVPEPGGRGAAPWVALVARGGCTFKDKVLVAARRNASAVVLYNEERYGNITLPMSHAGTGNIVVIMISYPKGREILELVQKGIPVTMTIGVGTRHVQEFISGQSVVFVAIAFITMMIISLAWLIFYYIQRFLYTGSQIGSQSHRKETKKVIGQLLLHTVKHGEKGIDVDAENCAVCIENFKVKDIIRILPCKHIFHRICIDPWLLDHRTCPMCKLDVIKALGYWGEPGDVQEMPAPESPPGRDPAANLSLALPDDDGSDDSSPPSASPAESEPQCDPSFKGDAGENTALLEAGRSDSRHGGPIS

Compound	IC50 (HCC827 [1]) [nM]	Activity [2] [%]	Activity [3] [%]	other results
COc1cc2ncnc(Nc3ccc(F)c(Cl)c3)c2cc1OCCn1cc(CCCO[Si](C)(C)C(C)(C)C)nn1	5620	19.7	22.4	
COc1cc2ncnc(Nc3ccc(F)c(Cl)c3)c2cc1OCCn1cc(CCO[Si](C)(C)C2CCCCC2)nn1	450	12.7	47	
COc1cc2ncnc(Nc3ccc(F)c(Cl)c3)c2cc1OCCn1cc(CCCCO[Si](c2ccccc2)(c2ccccc2)C(C)(C)C)nn1	110	28	58.4	
COc1cc2ncnc(Nc3ccc(F)c(Cl)c3)c2cc1OCCCCCCCCO[Si](c1ccccc1)(c1ccccc1)C(C)(C)C	> 10000	0	0	
COc1cc2ncnc(Nc3ccc(F)c(Cl)c3)c2cc1OCCCN1CCOCC1 [GEFITINIB]				IC50 (PC-9 [4]): 13 nM; Activity (PC-9 [5]): Dose-dependent-effect; Activity (HCC827 [6]): Dose-dependent-effect
COc1cc2ncnc(Nc3ccc(F)c(Cl)c3)c2cc1OCCCN1CCN(CCn2cc(CCCCO[Si](C)(C)C3CCCCC3)nn2)CC1	> 10000	0	18.4	
COc1cc2ncnc(Nc3ccc(F)c(Cl)c3)c2cc1OCCn1cc(CCCNC(=O)CO[C@@H]2C[C@H](C)CC[C@H]2C(C)C)nn1				half-life at 1 µM [7]: 7.4 min; CLint scaled at 1 µM [8]: 741 mL/min/kg; half-life at 1 µM [9]: 4.22 min; CLint scaled at 1 µM [10]: 295 mL/min/kg
COc1cc2ncnc(Nc3ccc(F)c(Cl)c3)c2cc1OCCCN1CCN(CCn2cc(CCCO[Si](C)(C)C3CCCCC3)nn2)CC1	> 10000	0	13.7	
COc1cc2ncnc(Nc3ccc(F)c(Cl)c3)c2cc1OCCCN1CCN(CCn2cc(CCCO[Si](c3ccccc3)(c3ccccc3)C(C)(C)C)nn2)CC1	1580	0	10.8	
COc1cc2ncnc(Nc3ccc(F)c(Cl)c3)c2cc1OCCCN1CCN(CCCO[Si](c2ccccc2)(c2ccccc2)C(C)(C)C)CC1	> 10000	0	0	
O=C(O)Cc1ccccc1Nc1c(Cl)cccc1Cl [DICLOFENAC]				half-life at 1 µM [7]: 50.2 min; CLint scaled at 1 µM [8]: 109 mL/min/kg; half-life at 1 µM [9]: 6.96 min; CLint scaled at 1 µM [10]: 179 mL/min/kg
COc1cc2ncnc(Nc3ccc(F)c(Cl)c3)c2cc1OCCCN1CCN(CCn2cc(CCO[Si](c3ccccc3)(c3ccccc3)C(C)(C)C)nn2)CC1	990	0	58	
COc1cc2ncnc(Nc3ccc(F)c(Cl)c3)c2cc1OCCn1cc(CCCCO[Si](C)(C)C2CCCCC2)nn1	700	46.1	53.2	
COc1cc2ncnc(Nc3ccc(F)c(Cl)c3)c2cc1OCCn1cc(CCCO[Si](C(C)C)(C(C)C)C(C)C)nn1	7460	4.2	18.2	
COc1cc2ncnc(Nc3ccc(F)c(Cl)c3)c2cc1OCCn1cc(CCCO[Si](C)(C)C2CCCCC2)nn1	150	52.3	55.3	
COc1cc2ncnc(Nc3ccc(F)c(Cl)c3)c2cc1OCCn1cc(CCCNC(=O)CC23CC4CC(CC(C4)C2)C3)nn1				half-life at 1 µM [7]: 1.05 min; CLint scaled at 1 µM [8]: 5230 mL/min/kg; half-life at 1 µM [9]: 1.81 min; CLint scaled at 1 µM [10]: 690 mL/min/kg
COc1cc2ncnc(Nc3ccc(F)c(Cl)c3)c2cc1OCCCN1CCN(CCn2cc(CCCCO[Si](c3ccccc3)(c3ccccc3)C(C)(C)C)nn2)CC1	3040	0	0	
COc1cc2ncnc(Nc3ccc(F)c(Cl)c3)c2cc1OCCCN1CCN(CCO[Si](c2ccccc2)(c2ccccc2)C(C)(C)C)CC1	> 10000	0	16.8	
COc1cc2ncnc(Nc3ccc(F)c(Cl)c3)c2cc1OCCn1cc(CCCC(=O)NCC2CC3C=CC2C3)nn1 (configuration not stated)				half-life at 1 µM [7]: 8.94 min; CLint scaled at 1 µM [8]: 614 mL/min/kg; half-life at 1 µM [9]: 9.48 min; CLint scaled at 1 µM [10]: 132 mL/min/kg
CC(C)(C)[Si](OCCn1cc(CCC(=O)N2CCC[C@@H](n3nc(-c4ccc(Oc5ccccc5)cc4)c4c(N)ncnc43)C2)nn1)(c1ccccc1)c1ccccc1				DC50 [11]: 2780 nM; Activity (MOLM-13 [12]): Active; Activity (MOLM-13 [13]): Time-dependent-effect; Activity (MOLM-13 [14]): inactive; Activity (MOLM-13 [15]): inactive; Activity (MOLM-13 [16]): Active; Activity (MOLM-13 [17]): Active; Activity (MOLM-13 [18]): Active
COc1cc2ncnc(Nc3ccc(F)c(Cl)c3)c2cc1OCCCCCCCO[Si](c1ccccc1)(c1ccccc1)C(C)(C)C	> 10000	0	0	
COc1cc2ncnc(Nc3ccc(F)c(Cl)c3)c2cc1OCCOCCOCCO[Si](c1ccccc1)(c1ccccc1)C(C)(C)C	> 10000	0	20.1	
COc1cc2ncnc(Nc3ccc(F)c(Cl)c3)c2cc1OCCOCCO[Si](c1ccccc1)(c1ccccc1)C(C)(C)C	> 10000	0	0	
COc1cc(OCc2cccc(-c3ccccc3)c2C)cc(OC)c1CNCc1cn(CCO[Si](c2ccccc2)(c2ccccc2)C(C)(C)C)nn1				DC50 [19]: 510 nM; Activity (Kasumi 1 [20]): Active; Activity (Kasumi 1 [21]): Time-dependent-effect; Activity (Kasumi 1 [22]): inactive; Activity (Kasumi 1 [23]): inactive; Activity (Kasumi 1 [24]): Active; Activity (Kasumi 1 [25]): Active; Activity (Kasumi 1 [26]): Active
COc1cc2ncnc(Nc3ccc(F)c(Cl)c3)c2cc1OCCn1cc(CCO[Si](c2ccccc2)(c2ccccc2)C(C)(C)C)nn1	140	46.4	72.1	
CC[Si](CC)(CC)OCCCc1cn(CCOc2cc3c(Nc4ccc(F)c(Cl)c4)ncnc3cc2OC)nn1	330	38.2	79.1	
